Literature values as cited in patent US6727104B2, “Microcolumn chromatographic immunoassays” (The Board of Regents of the University of Nebraska, priority 2001, dated 2004).
Read-outs that look alike come from different tables or passages of the source.

How the values were obtained:
[1] = target: Thyroxine-Binding Prealbumin (Homo sapiens, UniProt P02766)
[2] = target: T1, Thyroxine-Binding Globulin (Homo sapiens, UniProt P05543); details: T4 Binding Site
T1 sequence (P05543 21-415): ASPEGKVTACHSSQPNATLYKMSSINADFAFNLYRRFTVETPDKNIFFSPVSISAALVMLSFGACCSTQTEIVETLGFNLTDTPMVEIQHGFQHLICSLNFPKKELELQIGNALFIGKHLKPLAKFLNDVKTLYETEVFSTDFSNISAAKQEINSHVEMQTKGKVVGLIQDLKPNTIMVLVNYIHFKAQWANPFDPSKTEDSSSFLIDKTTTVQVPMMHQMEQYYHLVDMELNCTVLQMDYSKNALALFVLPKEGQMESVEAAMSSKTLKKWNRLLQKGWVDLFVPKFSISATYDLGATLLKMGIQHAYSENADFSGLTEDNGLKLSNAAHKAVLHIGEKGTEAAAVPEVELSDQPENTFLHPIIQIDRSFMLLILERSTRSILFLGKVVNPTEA

Ka ([1]; High Affinity Site): 1e+07 M⁻¹
Ka ([1]; Low Affinity Site): 300000 M⁻¹
Ka [2]: 1e+10 M⁻¹
Structure (SMILES): N[C@@H](Cc1cc(I)c(Oc2cc(I)c(O)c(I)c2)c(I)c1)C(=O)O [T4, L-Thyroxine]
